7 compounds from US7439372B2, “Therapeutic compounds” (Allergan, Inc., priority 2006, dated 2008) can be followed below.

Each structure is given as a SMILES string.

For one test, the target named is EP2 (Homo sapiens, UniProt P43116). Description: Competition binding, [3H]PGE2, HEK 293 cells stably expressing human EP2 receptors. Details: expressed in transfected cells; host or cells: HEK 293. To be noted: [3H]PGE2 competition. The method, then: Competition binding experiments were performed in a medium containing Hank's balanced salt solution, Hepes 20 mM, pH 7.3, membranes (˜60 μg protein) or 2×10^5 cells from HEK 293 cells stably expressing human EP2 receptors, [^3H]PGE2 (10 nM) and various concentrations of test compounds in a total volume of 300 μl. Reaction mixtures were incubated at 23° C. for 60 min, and were filtered over Whatman GF/B filters under vacuum. Filters were washed three times with 5 ml ice-cold buffer containing 50 mM Tris/HCl (pH 7.3). Non-specific binding was estimated in the presence of excess unlabeled PGE2 (10 μM). Binding data fitted to the binding model for a single class of binding sites, using nonlinear regression analysis. IC50 values thus obtained were converted to Ki using the equation of Ki=(IC50/(1+[L]/KD) where [L] represents PGE2 concentration (10 nM) and KD the dissociation constant for [3H]PGE2 at human EP2 receptors (40 nM).
Chain of EP2 (P43116 whole entry): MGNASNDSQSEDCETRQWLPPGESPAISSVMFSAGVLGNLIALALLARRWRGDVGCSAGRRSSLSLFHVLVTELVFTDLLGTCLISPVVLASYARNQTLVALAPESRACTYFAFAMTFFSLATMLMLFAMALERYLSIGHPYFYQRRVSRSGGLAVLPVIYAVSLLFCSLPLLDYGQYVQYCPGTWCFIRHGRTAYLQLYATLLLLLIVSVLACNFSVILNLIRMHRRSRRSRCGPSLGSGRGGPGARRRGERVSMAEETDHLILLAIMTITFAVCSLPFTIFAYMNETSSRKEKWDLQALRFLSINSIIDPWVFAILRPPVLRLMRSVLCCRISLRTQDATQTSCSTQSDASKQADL
(§1) HEK-293 cells stably expressing the human or feline FP receptor, or EP1, EP2, or EP4 receptors were washed with TME buffer, scraped from the bottom of the flasks, and homogenized for 30 sec using a Brinkman PT 10/35 polytron. TME buffer was added to achieve a final 40 ml volume in the centrifuge tubes (the composition of TME is 100 mM TRIS base, 20 mM MgCl2, […]; 10N HCl is added to achieve a pH of 7.4).
(§2) The cell homogenate was centrifuged at 19000 r.p.m. for 20 min at 4° C. using a Beckman Ti-60 rotor. The resultant pellet was resuspended in TME buffer to give a final 1 mg/ml protein concentration, as determined by Biorad assay. Radioligand binding competition assays vs. [^3H-]17-phenyl PGF2α (5 nM) were performed in a 100 μl volume for 60 min. Binding reactions were started by adding plasma membrane fraction. The reaction was terminated by the addition of 4 ml ice-cold TRIS-HCl buffer and rapid filtration through glass fiber GF/B filters using a Brandel cell harvester. The filters were washed 3 times with ice-cold buffer and oven dried for one hour.
(§3) [^3H-]PGE2 (specific activity 180 Ci mmol) was used as the radioligand for EP receptors. [^3H]17-phenyl PGF2α was employed for FP receptor binding studies. Binding studies employing EP1, EP2, EP4 and FP receptors were performed in duplicate in at least three separate experiments. A 200 μl assay volume was used. Incubations were for 60 min at 25° C. and were terminated by the addition of 4 ml of ice-cold 50 mM TRIS-HCl, followed by rapid filtration through Whatman GF/B filters and three additional 4 ml washes in a cell harvester (Brandel). Competition studies were performed using a final concentration of 5 nM [^3H]-PGE2, or 5 nM [^3H] 17-phenyl PGF2α and non-specific binding determined with 10^−5M of unlabeled PGE2, or 17-phenyl PGF2α, according to receptor subtype studied.

The target in another test is T1, hIP (Homo sapiens, UniProt P43119).
T1 construct: expressed in transfected cells; host or cells: HEK-293(EBNA)
T1 sequence (P43119 whole entry): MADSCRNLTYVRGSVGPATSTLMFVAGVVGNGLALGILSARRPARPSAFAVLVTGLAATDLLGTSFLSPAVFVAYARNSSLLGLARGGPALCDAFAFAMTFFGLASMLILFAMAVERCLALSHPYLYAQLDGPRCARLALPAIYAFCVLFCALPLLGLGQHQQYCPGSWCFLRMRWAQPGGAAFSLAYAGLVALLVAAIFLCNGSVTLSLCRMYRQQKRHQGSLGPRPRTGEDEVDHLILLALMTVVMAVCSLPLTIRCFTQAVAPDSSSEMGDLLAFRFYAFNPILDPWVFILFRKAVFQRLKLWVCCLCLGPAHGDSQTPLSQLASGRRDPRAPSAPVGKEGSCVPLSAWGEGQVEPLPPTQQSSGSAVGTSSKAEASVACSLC
Briefly: FLIPR calcium signal, HEK-293(EBNA) cells expressing hIP. The test is classed as cell-based. The method, then:
HEK-293(EBNA) cells, stably expressing one type or subtype of recombinant human prostaglandin receptors (prostaglandin receptors expressed: hDP/Gqs5; hEP1; hEP2/Gqs5; hEP3A/Gqi5; hEP4/Gqs5; hFP; hIP; hTP), were cultured in 100 mm culture dishes in high-glucose DMEM medium containing 10% fetal bovine serum, 2 mM l-glutamine, 250 µg/ml geneticin (G418) and 200 μg/ml hygromycin B as selection markers, and 100 units/ml penicillin G, 100 µg/ml streptomycin and 0.25 μg/ml amphotericin B.
Cells were seeded at a density of 5×10^4 cells per well in Biocoat® Poly-D-lysine-coated black-wall, clear-bottom 96-well plates (Becton-Dickinson) and allowed to attach overnight in an incubator at 37° C. Cells were then washed two times with HBSS-HEPES buffer (Hanks Balanced Salt Solution without bicarbonate and phenol red, 20 mM HEPES, pH 7.4) using a Denley Cellwash plate washer (Labsystems). After 45 minutes of dye-loading in the dark, using the calcium-sensitive dye Fluo-4 […] at a final concentration of 2 μM, plates were washed four times with HBSS-HEPES buffer to remove excess dye leaving 100 μl in each well. Plates were re-equilibrated to 37° C. for a few minutes.
Cells were excited with an Argon laser at 488 nm, and emission was measured through a 510-570 nm bandwidth emission filter (FLIPR™, Molecular Devices, Sunnyvale, Calif.). Drug solution was added in a 50 µl volume to each well to give the desired final concentration. The peak increase in fluorescence intensity was recorded for each well. On each plate, four wells each served as negative (HBSS-HEPES buffer) and positive controls (standard agonists: BW245C (hDP); PGE2 (hEP1; hEP2/Gqs5; hEP3A/Gqi5; hEP4/Gqs5); PGF2α (hFP); carbacyclin (hIP); U-46619 (hTP), depending on receptor). The peak fluorescence change in each drug-containing well was then expressed relative to the controls.
Compounds were tested in a high-throughput (HTS) or concentration-response (CoRe) format. In the HTS format, forty-four compounds per plate were examined in duplicates at a concentration of 10^−5 M. To generate concentration-response curves, four compounds per plate were tested in duplicates in a concentration range between 10^−5 and 10^−11 M. The duplicate values were averaged. In either, HTS or CoRe format each compound was tested on at least 3 separate plates using cells from different passages to give an n≧3.

The next test has as its target T2, EP4 receptors (Homo sapiens, UniProt P35408).
T2 construct: expressed in transfected cells; host or cells: HEK-293
Description: Radioligand binding, [3H]PGE2, HEK-293 cells stably expressing EP4 receptors. To be noted: [3H]PGE2 competition. On the procedure:
as §1, §2, §3

T2 sequence (P35408 whole entry): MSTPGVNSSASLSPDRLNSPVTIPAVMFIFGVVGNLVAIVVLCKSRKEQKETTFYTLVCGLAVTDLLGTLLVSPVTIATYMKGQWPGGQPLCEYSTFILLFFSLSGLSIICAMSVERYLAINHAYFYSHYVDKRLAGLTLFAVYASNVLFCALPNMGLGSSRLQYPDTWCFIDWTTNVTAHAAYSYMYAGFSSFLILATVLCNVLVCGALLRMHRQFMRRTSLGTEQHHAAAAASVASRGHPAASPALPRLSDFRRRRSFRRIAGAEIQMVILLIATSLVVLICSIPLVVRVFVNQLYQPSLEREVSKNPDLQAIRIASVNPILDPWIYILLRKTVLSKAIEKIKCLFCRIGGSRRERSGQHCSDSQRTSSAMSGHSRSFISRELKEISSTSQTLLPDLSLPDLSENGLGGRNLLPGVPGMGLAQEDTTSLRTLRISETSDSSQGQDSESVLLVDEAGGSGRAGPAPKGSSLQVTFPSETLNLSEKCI

As usually defined, the Ki is the dissociation constant of the complex between target and ligand, obtained from inhibition or displacement. Read a low Ki as higher affinity. As for `CCCCCC(O)c1ccc([C@H]2C(=O)CC[C@@H]2CCCc2ccc(C(=O)O)s2)cc1` (some centres unmarked) [compound 1], affinity on EP2 was put at a Ki of 43 nM. The “Ca2+ Signal-EC50(nM) IP” value on hIP was “notactive”.

On to `CCCCCC(O)c1ccc([C@H]2C(=O)CC[C@@H]2CCCc2ccc(C(=O)O)s2)cc1` (some centres unmarked) [compound 2], for which the Ki at EP2 came to 70 nM. Further, the “Ca2+ Signal-EC50(nM) IP” value at hIP is recorded as “notactive”.

As for `CCCCCC(O)c1ccc([C@@H]2[C@@H](CCCc3ccc(C(=O)O)s3)CCC2(Cl)Cl)cc1` (some centres unmarked) [compound 3], the Ki at EP2 came out at 89 nM. Also, on hIP, the “Ca2+ Signal-EC50(nM) IP” value is on record as “notactive”.

As for `CCCCCC(O)c1ccc([C@H]2C(=O)CC[C@@H]2C/C=C\CCCC(=O)O)cc1` (some centres unmarked) [compound 5], the results for the Ki at EP2 and at EP4 receptors were 1050 nM and 4210 nM, respectively. The “Ca2+ Signal-EC50(nM) IP” value on hIP is listed as “notactive”.

Regarding `CCCCCC(O)c1ccc([C@@H]2[C@@H](C/C=C\CCCC(=O)O)CC[C@H]2Cl)cc1` (some centres unmarked) [compound 6], the Ki is 401 nM on EP2 and 1030 nM on EP4 receptors. At hIP, the “Ca2+ Signal-EC50(nM) IP” value is listed as “notactive”.

Compound `CCCCCC(O)c1ccc([C@@H]2[C@@H](C/C=C\CCCC(=O)O)CC[C@H]2O)cc1` (some centres unmarked) [compound 7] returned a Ki on EP2 of 2310 nM. Besides, at hIP, the “Ca2+ Signal-EC50(nM) IP” value is “notactive”.

`CCCCCC(O)c1ccc([C@H]2C(=O)C=C[C@@H]2CCCc2ccc(C(=O)O)s2)cc1` (some centres unmarked) [compound 11]: the Ki on EP2 came out at 173 nM; at EP4 receptors, 1940 nM. For the same compound, on hIP, the “Ca2+ Signal-EC50(nM) IP” value was “notactive”.
